Reference: patent US4220645A, “Chromone derivatives” (Thea (Therapeutique et Applications) SA, priority 1977, dated 1980)
Counter-ions that a name gives are not always drawn.

Columns and labels:
[1] = test system: rhythm disorders induced by aconitine; experiment: Anti-arrhythmic activity in the guinea-pig (aconitine-induced arrhythmia); format: in vivo; settings: for Average time for arrhythmia to appear, PES (polymorphic extrasystoles) / Average time for arrhythmia to appear, VT (ventricular tachycardia) / Average time for arrhythmia to appear, MTV (multifocal ventricular tachycardia) / Average time for arrhythmia to appear, VTB (ventricular tachycardia bursts): 6 guinea pigs; for Average time for arrhythmia to appear, PES (polymorphic extrasystoles): controls 27 ± 2; for Average time for arrhythmia to appear, VT (ventricular tachycardia): controls 30 ± 2; for Average time for arrhythmia to appear, MTV (multifocal ventricular tachycardia): controls 41 ± 2; for Average time for arrhythmia to appear, VTB (ventricular tachycardia bursts): controls 63 ± 4; for Delay of rhythm disorders induced by aconitine: I.V., guinea-pig, compared with amiodarone
Experimental: Anti-arrhythmic activity in the guinea-pig
Reference: Experimental evaluation of anti-arrhythmic drugs in the guinea-pig. GUIDICELLI, WITCHITZ, LARNO, BOISSIER, Biomedecine, 1973, 19, 308-313.
Male and female guinea-pigs were used, weighing from 600 to 800 g and anesthetised with urethane (1.25 g/kg/I.P.), tracheotomised and kept under artificial respiration. The electrocardiogram (D2) was recorded.
Arrhythmia was produced by perfusion at the rate of 0.5 ml/min of an aqueous solution of aconitine nitrate (0.15 mg/ml) in the jugular vein. Measurements were made of the time before the following rhythm disturbances appeared:
Polymorphic extrasystoles (PES),
Ventricular tachycardia (VT),
Multifocal ventricular tachycardia (MVT),
Ventricular tachycardia bursts (VTB),
that is a sequence of ventricular complexes of fixed frequency but with regular increasing and decreasing amplitude.
The following substances were used:
Amiodarone hydrochloride for comparison.
The substances were intravenously injected immediately before perfusion with aconitine had started.

spontaneous heart rate = experiment: Bradycardiac activity on the conscious dog; format: in vivo, dog (mongrel); settings: 4 mg/kg I.V.; for Average heart beat after substance injected: 9 dogs, before injection 132 ± 9, (S) significant to p = 0,05
Experimental: Bradycardiac activity on the conscious dog
The dogs used were male and female mongrels weighing from 15 to 20 kg. Their bypass electrocardiograms (D2) were recorded and their heart rate (FC) was measured with a cardiotachometer.
The animals were not used to tests and consequently their heart rate was relatively high, 130 beats per minute on average.
3 control measurements of the heart rate were made during the hour before intravenous injection of the substance under study, and 3 further measurements were made 5 minutes, 20 minutes and 35 minutes after administration.

[2] = test system: tachycardia produced by isoprenaline stimulation of the sympathicoβ receptors of the heart; experiment: Sympathico-inhibiting activity in the conscious dog (isoprenaline tachycardia); format: in vivo, dog (mongrel); settings: for Effect of isoprenaline after substance injected: 4 mg/kg I.V., 6 dogs, before injection 114 ± 9 (controls), (S) significant to P = 0,05
Experimental: Sympathico-inhibiting activity in the conscious dog
The dogs used were male and female mongrels weighing from 15 to 20 kg. The animals were not anaesthetised. Their electrocardiograms (D2) and heart rates were measured.
Short bouts of tachycardia, approx. 1 minute long, were produced by intravenously injecting a solution of isoprenaline in doses of 0.25 Y/kg. The injections were repeated every 15 minutes until the increase in heart rate had been reproduced in a satisfactory manner.
Next, the substance under study was intravenously injected and 3 additional measurements of the isoprenaline tachycardia were made 5 minutes, 20 minutes and 35 minutes after the product under study had been administered.

[3] = Acute toxicity in the mouse; format: in vivo; settings: female Swiss mice
Experimental: Acute toxicity in the mouse
The acute toxicity of compound No. 6 administered intravenously (I.V.) and orally (P.O.) was determined in female mice of the Swiss strain weighing from 25 to 27 g.
Compound No. 6 was administered in aqueous solution in a concentration of 0.4% intravenously and in a concentration of 1% and 4% orally.

With `CCCCc1oc2ccccc2c1C(=O)c1cc(I)c(OCCN(CC)CC)c(I)c1` [Amiodarone (hydrochloride), Amiodarone hydrochloride, reference compound] the “Average time for arrhythmia to appear, PES (polymorphic extrasystoles)” value (“Average time … (polymorphic extrasystoles)” below) ([1]; 4 mg/kg I.V.) was 32 ± 3 s, the “Average time for arrhythmia to appear, VT (ventricular tachycardia)” value (from here on “Average time … (ventricular tachycardia)”) ([1]; 4 mg/kg I.V.) was 44 ± 6 s and the “Average time for arrhythmia to appear, MTV (multifocal ventricular tachycardia)” value ([1]; 4 mg/kg I.V.) was 59 ± 5 s. The “Average time for arrhythmia to appear, VTB (ventricular tachycardia bursts)” value (shortened to “Average time … (ventricular tachycardia bursts)”) ([1]; 4 mg/kg I.V.) was 94 ± 8 s.
In the case of `CCCCN(CCCC)CCCOc1c(C)cc(C(=O)c2cc(=O)c3ccccc3o2)cc1C` [Compound No. 1, 2-[4-(3-N,N-dibutylaminopropoxy) 3,5-dimethylbenzoyl] chromone hydrochloride], the “Average time … (polymorphic extrasystoles)” value ([1]; 2 mg/kg I.V.) is reported as 63 ± 4 s, the “Average time … (ventricular tachycardia)” value ([1]; 2 mg/kg I.V.) is reported as 79 ± 9 s and the “Average time for arrhythmia to appear, MTV (multifocal ventricular tachycardia)” value ([1]; 2 mg/kg I.V.) is reported as 94 ± 10 s. The “Average time … (ventricular tachycardia bursts)” value ([1]; 2 mg/kg I.V.) was 139 ± 11 s, the “Delay of rhythm disorders induced by aconitine” value [1] was “delay rhythm disorders induced by aconitine to a greater extent than the conventional reference compound, amiodarone” and the “Effect on spontaneous heart rate” value (spontaneous heart rate; conscious dog) was “significantly lowers the spontaneous heart rate”. For the same molecule, the “Average heart beat after substance injected” value (“Average heart beat” for short) (spontaneous heart rate; 5 min, spread ±10) was 114 beats/min, the “Average heart beat” value (spontaneous heart rate; 20 min, spread ±8) was 109 beats/min and the “Average heart beat” value (spontaneous heart rate; 35 min, spread ±8) was 107 beats/min. For the same molecule, the “Effect of isoprenaline after substance injected” value (“Effect of isoprenaline” for short) ([2]; 5 min, spread ±12) was 68 beats per minute, the “Effect of isoprenaline” value ([2]; 20 min, spread ±10) was 89 beats per minute and the “Effect of isoprenaline” value ([2]; 35 min, spread ±10) was 97 beats per minute. For the same molecule, the Sympathico-inhibiting activity ([2]; isoprenaline tachycardia, conscious dog) was “can moderate tachycardia produced by isoprenaline stimulation”.
`CCCCN(CCCC)CCCOc1c(C)cc(C(=O)c2oc3ccccc3c(=O)c2C)cc1C` [Compound No. 6, 2-[4-(3-N,N-dibutylaminopropoxy) 3,5-dimethylbenzoyl] 3-methyl chromone hydrochloride] showed a Lethal dose ([3]; I.V., aqueous solution 0.4%) of roughly 30 mg/kg and a Lethal dose ([3]; P.O., aqueous solution 1% and 4%) of roughly 1200 mg/kg.
For `CCCCN(CCCC)CCOc1c(C)cc(C(=O)c2cc(=O)c3ccccc3o2)cc1C` [Compound No. 7, 2-[4-(2-N,N-dibutylaminoethoxy) 3,5-dimethylbenzoyl] chromone hydrochloride], the “Average time … (polymorphic extrasystoles)” value ([1]; 4 mg/kg I.V.) was 36 ± 4 s, the “Average time … (ventricular tachycardia)” value ([1]; 4 mg/kg I.V.) was 55 ± 8 s and the “Average time for arrhythmia to appear, MTV (multifocal ventricular tachycardia)” value ([1]; 4 mg/kg I.V.) was 77 ± 9 s. For the same molecule, the “Average time … (ventricular tachycardia bursts)” value ([1]; 4 mg/kg I.V.) was 145 ± 10 s and the “Delay of rhythm disorders induced by aconitine” value [1] was “delay rhythm disorders induced by aconitine to a greater extent than the conventional reference compound, amiodarone”.
